Reference: paper PMC6440977, “Nucleoside analogue activators of cyclic AMP-independent protein kinase A of Trypanosoma” (Nature Communications, 2019)
Values joined by “and” are separate entries in the source; they are usually repeats but may differ in a detail not shown here. Identical values can stand only once. Like-named read-outs stand apart in the source and are kept apart here.

Key:
Format in all cases: cell-based, Trypanosoma brucei
[1] = system: RXXS*/T* site phosphorylation; test: Western blot of global RXXS*/T* site phosphorylation (phospho-PKA substrate antibody); details: wild type, 2 µM, 10 min
[2] = system: T. brucei proteome; test: Label-free quantitative proteomics
Protocol: Trypanosomes treated or not with 2 µM 7-CN-7-C-Ino (time course: 0 h, 6 h, 12 h) were washed twice in phosphate buffered saline (PBS) and lysed in Laemmli sample buffer to a concentration of 2.5×10^5 cells µl -1. Protein concentration was determined by Colloidal Coomassie Blue staining and densitometry. 20 µg of protein were loaded on a 10% acrylamide SDS-PAGE gel. Migration was stopped when samples had entered the resolving gel and proteins were visualized by Colloidal Coomassie Blue staining. Each SDS-PAGE band was cut into 1 mm × 1 mm gel pieces and further processed as described previously 26.
Online nanoLC-MS/MS analyses were performed using an Ultimate 3000 RSLC Nano-UPHLC system (Thermo Scientific, USA) coupled to a nanospray Q-Exactive hybrid quadrupole-Orbitrap mass spectrometer (Thermo Scientific, USA). 1 µg of each peptide extract was loaded on a 300 µm ID x 5 mm PepMap C18 precolumn (Thermo Scientific, USA) at a flow rate of 20 µl min -1. After a 3 min desalting step, peptides were separated on a 75 µm ID x 25 cm C 18 Acclaim PepMap® RSLC column (Thermo Scientific, USA) with a 4-40% linear gradient of solvent B (0.1% formic acid in 80% ACN) in 108 min. The separation flow rate was set at 300 nl min-1. The mass spectrometer operated in positive ion mode at a 1.8 kV needle voltage. Data was acquired using Xcalibur 3.1 software in a data-dependent mod e. MS scans (m/z 300-1,600) were recorded at a resolution of R = 70,000 (@ m/z 200) and an AGC target of 3×10 6 ions collected within 100 ms. Dynamic exclusion was set to 30 s and top 12 ions were selected from fragmentation in HCD mode. MS/MS scans with a target value of 1×10 5 ions

[3] = system: PKAC1/2; details: for PKAC1/2 Western quantification: normalized to PFR, WT 0h set to 1, individual replicates; for PKAC1/2 counts / PKAC1/2 normalized / PKAC1/2 fold change: 4 µM; for PKAC1/2 normalized: normalized to PFR-A/C; for PKAC1/2 fold change: untreated WT set to 1;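 on all read-outs here: trypanosoma brucei cells, PKAC1/2 signal from western blots read on an infrared fluorescence scanning system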
[4] = system: PKAR; test: Western blot quantification of protein abundance, PKAR; details: WT cells, normalized to PFR, WT 0h set to 1, individual replicates
Description: Replicate 1 Replicate 2 Replicate 3 PKAR
WT pkar KOWT pkar KO pkar WTKO1.0PKAC1/2 […]
(a) Samples prepared for quantitative proteome analysis: PKAR and PKAC1/2 protein levels (top Western panels, red) and RXXS*/T* phos-phorylation (bottom Western panels, phospho-specific anti-RXXS*/T*, red) are quantified as summarized in the column charts next to the Western blots. The scanned values were normalized to the loading control (PFR-A/C, green) and the untreated wild type sample was set to 1. Wild type (WT) and ∆pkar/∆pkar (pkar KO) cells were treated with 7-CN-7-C-Ino (Ino) for the indicated time (PKAR/PKAC1 expression) or for 10 min (RXXS*/T* phosphorylation). Error bars represent SD of three independent experiments.
>1.5 fold (vertical dashed lines) with a p-value of <0.05 (Welch’s t-test, two-sided) are labeled as blue dots with their TriTrypDB IDs.
Source data are provided as a Source Data file.
(also on this page, place not known: WT -Log10 WT6 -Log KO6 2 4 KO -1 / KO0 -Log10 p-value KO12 / KO0 2 4 10 WT (b) p-value p-value 2 4 -Log10 p-value / WT0 -1 0 1 WT12 / WT0 Fold expression 0 0 WT KO 1.0 PKAC1/2 WT pkar KO + - 0 1 2 4 Fold RXXS/T phosphorylation 11) […]
For Western blot analysis14, the primary antibodies anti-PKAR7 (1:500), anti - […]
(ThermoFisher, catalogue number A27042, 1:5000) were used for detection using the OdysseyTM IR fluorescence scanning system. […]

[5] = WT trypanosomes, 12 hours treatment vs untreated, LFQ, three independent replicates

N#Cc1cn([C@@H]2O[C@H](CO)[C@@H](O)[C@H]2O)c2ncnc(O)c12 [7-CN-7-C-Ino, 7-Cyano-7-deazainosine]
increase in global RXXS*/T* site phosphorylation [1]: 3–4 fold
fold regulation KO12 vs KO0 (up/down), Tb927.2.5820 hypothetical protein ([2]; PKAR knock out trypanosomes, 12 hours treatment vs untreated, LFQ, three independent replicates): 1.69 ± 0.28 fold
fold regulation WT12 vs WT0 (up/down), Tb927.10.12510 P-type H+-ATPase [2, 5]: 0.60 ± 0.03 fold
fold regulation WT12 vs WT0 (up/down), Tb927.10.2440 Metacaspase-4 [2, 5]: 0.65 ± 0.03 fold
fold regulation WT12 vs WT0 (up/down), Tb927.10.8440 glucose transporter [2, 5]: 1.56 ± 0.16 fold
fold regulation WT12 vs WT0 (up/down), Tb927.11.14750 PSP1 C-terminal conserved region [2, 5]: 0.52 ± 0.04 fold
fold regulation WT12 vs WT0 (up/down), Tb927.2.5820 hypothetical protein [2, 5]: 1.82 ± 0.31 fold
fold regulation WT12 vs WT0 (up/down), Tb927.4.4310 Nucleoporin NUP64 [2, 5]: 0.65 ± 0.05 fold
fold regulation WT12 vs WT0 (up/down), Tb927.7.3450 I/6 autoantigen [2, 5]: 1.58 ± 0.04 fold
fold regulation WT12 vs WT0 (up/down), Tb927.7.7520;Tb927.7.7530 receptor-type adenylate cyclase GRESAG 4 [2, 5]: 0.65 ± 0.02 fold
fold regulation WT12 vs WT0 (up/down), Tb927.8.6760 IgE-dep. histamine-releasing factor [2, 5]: 0.66 ± 0.01 fold
fold regulation WT12 vs WT0 (up/down), Tb927.8.7780 hypothetical protein [2, 5]: 1.55 ± 0.08 fold
fold regulation WT12 vs WT0 (up/down), Tb927.9.10100 hypothetical protein [2, 5]: 0.53 ± 0.02 fold
fold regulation WT12 vs WT0 (up/down), Tb927.9.11100 cAMP-dependent protein kinase catalytic subunit 1 [2, 5]: 0.36 ± 0.01 fold
fold regulation WT12 vs WT0 (up/down), Tb927.9.12380 Histidine phosphatase superfamily (branch 1) [2, 5]: 0.48 ± 0.11 fold
fold regulation WT12 vs WT0 (up/down), Tb927.9.2670 Engulfment and cell motility domain-containing protein [2, 5]: 1.70 ± 0.08 fold
significantly regulated proteins, in words ([2]; wild type, 6 h post induction): No significantly regulated proteins
significantly regulated proteins (number) ([2]; wild type, 12 h post induction, ≥[…], p ≤ 0.05): 14
PKAC1/2 Western quantification ([3]; R KO cells, 6 h treatment): 0.4425 and 0.1597 and 0.1981
PKAC1/2 Western quantification ([3]; R KO cells, 12 h treatment): 0.2802 and 0.2063 and 0.2365
PKAC1/2 Western quantification ([3]; WT cells, 6 h treatment): 0.4685 and 0.4579 and 0.5439
PKAC1/2 Western quantification ([3]; WT cells, 12 h treatment): 0.3997 and 0.2606 and 0.4376
PKAC1/2 counts ([3]; WT, 12 h): 99.53
PKAC1/2 normalized ([3]; WT, 12 h): 60.689
PKAC1/2 fold change ([3]; WT, 12 h): 0.4385
PKAC1/2 counts ([3]; WT, 18 h): 76
PKAC1/2 normalized ([3]; WT, 18 h): 55.0725
PKAC1/2 fold change ([3]; WT, 18 h): 0.3979
PKAC1/2 counts ([3]; WT, 24 h): 86.74
PKAC1/2 normalized ([3]; WT, 24 h): 55.6026
PKAC1/2 fold change ([3]; WT, 24 h): 0.4018
PKAC1/2 counts ([3]; pkar KO, 12 h): 70.66
PKAC1/2 normalized ([3]; pkar KO, 12 h): 3.197
PKAC1/2 fold change ([3]; pkar KO, 12 h): 0.1969
PKAC1/2 counts ([3]; pkar KO, 18 h): 69.65
PKAC1/2 normalized ([3]; pkar KO, 18 h): 3.869
PKAC1/2 fold change ([3]; pkar KO, 18 h): 0.2383
PKAC1/2 counts ([3]; pkar KO, 24 h): 95.11
PKAC1/2 normalized ([3]; pkar KO, 24 h): 3.187
PKAC1/2 fold change ([3]; pkar KO, 24 h): 0.1963
PKAR Western quantification ([4]; 6 h treatment): 0.8653 and 0.7031 and 1.455
PKAR Western quantification ([4]; 12 h treatment): 0.7135 and 0.7185 and 1.457
